This is an account of results in ChEMBL document CHEMBL5036317, “Identification of Unique Quinazolone Thiazoles as Novel Structural Scaffolds for Potential Gram-Negative Bacterial Conquerors” (J Med Chem, 2021).

Values after ≈ are worked out from the molar mass of the structure shown. A value given as a limit tells only on which side of the number the result lay.

The subject of data set [1] is Pseudomonas aeruginosa. Put plainly: Antibacterial activity against Pseudomonas aeruginosa assessed as drug resistance by measuring fold change in MIC treated for 16 serial passages and measured every 24 hrs. The class given is functional.
Data set [2] has as its system Staphylococcus aureus. Put plainly: Antibacterial activity against Staphylococcus aureus assessed as inhibition of bacterial growth measured after 24 hrs by two-fold serial dilution method. The class given is functional.
Data set [3] relates to Staphylococcus aureus. Put plainly: Antibacterial activity against methicillin-resistant Staphylococcus aureus assessed as inhibition of bacterial growth measured after 24 hrs by two-fold serial dilution method. The class given is functional.
Data set [4] has as its system Pseudomonas aeruginosa. Put plainly: Antibacterial activity against Pseudomonas aeruginosa assessed as inhibition of bacterial growth measured after 24 hrs by two-fold serial dilution method. The class given is functional.
The next data set has as its system Klebsiella pneumoniae. Kind of data set: Antibacterial activity against Klebsiella pneumoniae assessed as inhibition of bacterial growth measured after 24 hrs by two-fold serial dilution method. Type of data set: functional.
For data set [5], the system named is Pseudomonas aeruginosa. Put plainly: Antibacterial activity against Pseudomonas aeruginosa ATCC 27853 assessed as inhibition of bacterial growth measured after 24 hrs by two-fold serial dilution method. Type of data set: functional.
Data set [6] has as its system Staphylococcus aureus. Put plainly: Antibacterial activity against Staphylococcus aureus ATCC 25923 assessed as inhibition of bacterial growth measured after 24 hrs by two-fold serial dilution method. The class given is functional.
Data set [7] concerns Staphylococcus aureus. Put plainly: Antibacterial activity against Staphylococcus aureus ATCC 29213 assessed as inhibition of bacterial growth measured after 24 hrs by two-fold serial dilution method. Type of data set: functional.
The next data set deals with Enterococcus faecalis. Put plainly: Antibacterial activity against Enterococcus faecalis assessed as inhibition of bacterial growth measured after 24 hrs by two-fold serial dilution method. Type of data set: functional.
Data set [8] has as its system Escherichia coli. Kind of data set: Antibacterial activity against Escherichia coli assessed as inhibition of bacterial growth measured after 24 hrs by two-fold serial dilution method. The class given is functional.
The test system of data set [9] is Escherichia coli. Put plainly: Antibacterial activity against Escherichia coli assessed as drug resistance by measuring fold change in MIC treated for 16 serial passages and measured every 24 hrs. The class given is functional.
For a further data set, the system named is Acinetobacter baumannii. Kind of data set: Antibacterial activity against Acinetobacter baumanii assessed as inhibition of bacterial growth measured after 24 hrs by two-fold serial dilution method. Type of data set: functional.
Data set [10] concerns Escherichia coli. Put plainly: Antibacterial activity against Escherichia coli ATCC 25922 assessed as inhibition of bacterial growth measured after 24 hrs by two-fold serial dilution method. Type of data set: functional.
Data set [11] is described as follows: Haemolytic activity in human erythrocytes incubated for 2 hrs. Type of data set: ADME, cell-based, Erythrocyte.

Turning to `CCn1cc(C(=O)O)c(=O)c2cc(F)c(N3CCNCC3)cc21` [NORFLOXACIN], the “fold change (FC)” value in the data set on Pseudomonas aeruginosa [1] and in the data set on Escherichia coli [9] was 32 each time. Moreover, the minimal inhibitory concentration (MIC) in the data set with Staphylococcus aureus [2] is 4 µg/mL (≈ 12.5 µM); with Staphylococcus aureus [3], 8 µg/mL (≈ 25.1 µM); in the data set on Pseudomonas aeruginosa [4] it was 4 µg/mL (≈ 12.5 µM); with Klebsiella pneumoniae, 2 µg/mL (≈ 6.26 µM); in the data set with Pseudomonas aeruginosa [5], 0.5 µg/mL (≈ 1.57 µM); in the data set on Staphylococcus aureus [6], 2 µg/mL (≈ 6.26 µM). Also, the minimum inhibitory concentration (MIC) in the data set on Staphylococcus aureus [7] is 1 µg/mL (≈ 3.13 µM); in the data set with Enterococcus faecalis, 4 µg/mL (≈ 12.5 µM); in the data set on Escherichia coli [8], 4 µg/mL (≈ 12.5 µM); with Acinetobacter baumannii, 2 µg/mL (≈ 6.26 µM); in the data set on Escherichia coli [10], 2 µg/mL (≈ 6.26 µM).

Turning to `N#Cc1ccc(/C=C(/C(=O)c2nccs2)n2cnc3cc(Cl)ccc3c2=O)cc1`, the MIC with Staphylococcus aureus [2] stood at 32 µg/mL (≈ 76.4 µM); in the data set on Staphylococcus aureus [3], 4 µg/mL (≈ 9.55 µM); with Pseudomonas aeruginosa [4], 2 µg/mL (≈ 4.77 µM); in the data set on Klebsiella pneumoniae it was 8 µg/mL (≈ 19.1 µM); with Pseudomonas aeruginosa [5], 2 µg/mL (≈ 4.77 µM); in the data set with Staphylococcus aureus [6] it was 1 µg/mL (≈ 2.39 µM). Besides, the MIC was found to be 1 µg/mL (≈ 2.39 µM) in the data set on Staphylococcus aureus [7]; 1 µg/mL (≈ 2.39 µM) in the data set on Enterococcus faecalis; 16 µg/mL (≈ 38.2 µM) in the data set on Escherichia coli [8]; 512 µg/mL (≈ 1220 µM) in the data set on Acinetobacter baumannii; 4 µg/mL (≈ 9.55 µM) with Escherichia coli [10]. Moreover, the concentration for 50% haemolysis (HC50) at 2 h in [11] was > 250 µg/mL.

Consider `Cc1ccc2c(/C=C(/C(=O)c3nccs3)n3cnc4cc(Cl)ccc4c3=O)c[nH]c2c1`, for which the MIC in the data set with Staphylococcus aureus [2] came out at 512 µg/mL (≈ 1150 µM); with Staphylococcus aureus [3] it was 32 µg/mL (≈ 71.6 µM); in the data set with Pseudomonas aeruginosa [4], 64 µg/mL (≈ 143 µM); with Klebsiella pneumoniae, 64 µg/mL (≈ 143 µM); in the data set on Pseudomonas aeruginosa [5], 8 µg/mL (≈ 17.9 µM); with Staphylococcus aureus [6], 32 µg/mL (≈ 71.6 µM). Besides, the minimal inhibitory concentration (MIC) in the data set with Staphylococcus aureus [7] was determined as 32 µg/mL (≈ 71.6 µM); in the data set on Enterococcus faecalis it was 64 µg/mL (≈ 143 µM); with Escherichia coli [8] it was 128 µg/mL (≈ 286 µM); in the data set with Acinetobacter baumannii it was 8 µg/mL (≈ 17.9 µM); in the data set on Escherichia coli [10], 16 µg/mL (≈ 35.8 µM). For the same compound, the concentration for 50% haemolysis (HC50) at 2 h in data set [11] was > 250 µg/mL.

Consider `O=C(/C(=C/c1ccc(N2CCCCC2)cc1F)n1cnc2cc(Cl)ccc2c1=O)c1nccs1`, for which the MIC was 512 µg/mL (≈ 1030 µM) with Staphylococcus aureus [2]; 512 µg/mL (≈ 1030 µM) with Staphylococcus aureus [3]; 128 µg/mL (≈ 259 µM) with Pseudomonas aeruginosa [4]; 512 µg/mL (≈ 1030 µM) in the data set with Klebsiella pneumoniae; 32 µg/mL (≈ 64.6 µM) in the data set on Pseudomonas aeruginosa [5]; 512 µg/mL (≈ 1030 µM) with Staphylococcus aureus [6]. Moreover, the minimal inhibitory concentration (MIC) is 2 µg/mL (≈ 4.04 µM) in the data set with Staphylococcus aureus [7]; 512 µg/mL (≈ 1030 µM) in the data set with Enterococcus faecalis; 512 µg/mL (≈ 1030 µM) in the data set with Escherichia coli [8]; 128 µg/mL (≈ 259 µM) in the data set with Acinetobacter baumannii; 512 µg/mL (≈ 1030 µM) in the data set with Escherichia coli [10]. In addition, the HC50 at 2 h in data set [11] was determined as 181 µg/mL.

For `O=C(/C(=C/c1ccc(Cl)cc1)n1cnc2cc(Cl)ccc2c1=O)c1nccs1`, the MIC with Staphylococcus aureus [2] was determined as 16 µg/mL (≈ 37.4 µM); in the data set on Staphylococcus aureus [3], 8 µg/mL (≈ 18.7 µM); in the data set on Pseudomonas aeruginosa [4], 2 µg/mL (≈ 4.67 µM); with Klebsiella pneumoniae, 64 µg/mL (≈ 149 µM); in the data set on Pseudomonas aeruginosa [5] it was 1 µg/mL (≈ 2.33 µM); in the data set on Staphylococcus aureus [6] it was 4 µg/mL (≈ 9.34 µM). The MIC came to 4 µg/mL (≈ 9.34 µM) in the data set on Staphylococcus aureus [7]; 4 µg/mL (≈ 9.34 µM) in the data set with Enterococcus faecalis; 16 µg/mL (≈ 37.4 µM) in the data set on Escherichia coli [8]; 256 µg/mL (≈ 598 µM) with Acinetobacter baumannii; 2 µg/mL (≈ 4.67 µM) in the data set with Escherichia coli [10]. Also, in data set [11], the HC50 at 2 h is > 250 µg/mL.

For the compound `O=C(/C(=C/c1csc2ccccc12)n1cnc2cc(Cl)ccc2c1=O)c1nccs1`, the MIC worked out at 512 µg/mL (≈ 1140 µM) in the data set on Staphylococcus aureus [2]; 512 µg/mL (≈ 1140 µM) with Staphylococcus aureus [3]; 32 µg/mL (≈ 71.1 µM) in the data set on Pseudomonas aeruginosa [4]; 128 µg/mL (≈ 284 µM) with Klebsiella pneumoniae; 16 µg/mL (≈ 35.6 µM) in the data set with Pseudomonas aeruginosa [5]; 256 µg/mL (≈ 569 µM) with Staphylococcus aureus [6]. The minimal inhibitory concentration (MIC) in the data set with Staphylococcus aureus [7] was 16 µg/mL (≈ 35.6 µM); with Enterococcus faecalis it was 512 µg/mL (≈ 1140 µM); with Escherichia coli [8] it was 16 µg/mL (≈ 35.6 µM); in the data set on Acinetobacter baumannii, 32 µg/mL (≈ 71.1 µM); with Escherichia coli [10], 16 µg/mL (≈ 35.6 µM). For the same compound, the 50% haemolytic concentration (HC50) at 2 h in data set [11] is > 250 µg/mL.

What is called MIC is the smallest concentration in the dilution series that meets the test's criterion for growth inhibition. For orientation: HC50 means the concentration giving 50% haemolysis. High values mean weaker haemolysis, low ones stronger haemolysis.
